Results on eight compounds are retold here after patent US11013745B2, “Triazolopyrimidine, triazolopyridine compounds, and the composition thereof for treating PRC2-mediated diseases” (SHANGHAI INSTITUTE OF MATERIA MEDICA, CHINESE ACADEMY OF …, priority 2017, dated 2021).

A short description of data set [1]: Liver microsomal stability (mouse). The class given is in vitro ADME.
Data set [2] in a line: Liver microsomal stability (human). The class given is in vitro ADME. The method, then: (§1) 1. JANUS and temperature control device was turned on. After being initialized, the pipes were flushed until there was no air bubble in the pipes.
(§2) 2. Preparation of buffers used for the experiment
(§3) Preparation of Tris pH 7.4 buffer (0.1 M): 12.12 g of Tris was dissolved in 1000 mL of H2O, the resulting solution was adjusted to pH 7.4 with 2N HCl, aliquoted at 50 mL per tube, and stored at −20° C.
(§4) Preparation of H2O/0.1% BSA buffer: 200 μL of 25% BSA was added to 50 mL of H2O.
(§5) Preparation of VIVID stock solution: 1 mg of VIVID was dissolved in 1 mL of acetonitrile, aliquoted at 50 μL per tube, and stored at −20° C.
(§6) Preparation of MgCl2 solution (100 mM): 1.016 g of MgCl2 was dissolved in 50 mL Tris pH 7.4 buffer, and aliquoted at 1 mL per tube, and stored at −20° C.
(§7) Preparation of NADPH solution (10 mM): 355 mg of NADPH was dissolved in 42.6 mL of Tris pH 7.4 buffer, aliquoted at 1.8 mL per tube, and stored at −20° C.
(§8) Preparation of Blank control: 7.937 mL of Tris, 163 μL of RLM, 450 μL of MgCl2 solution, 450 μL of NADPH solution and 9 mL of methanol were mixed uniformly, aliquoted at 1 mL per tube, and stored at −20° C.
(§9) 3. Preparation of Compound Working Solution
(§10) Dilution step 1:10 μL of compound stock solution was added to 90 μL of DMSO=1 mM stock solution.
(§11) Dilution step 2: 2 μL of 1 mM stock solution was added to 1 mL of H2O/0.1%6 BSA buffer=[…] working solution.
(§12) Dilution step 3: 245 μL of the working solution was added to a 96-well compound plate and added with 5 μL of VIVID stock solution.
(§13) The 96-well compound plate was shaken on a shaker for 5 min.
(§14) 4. The STM in the JANUS in the computer was open to run the EXCEL file, and the JANUS program was operated and run by following the instructions in the EXCEL file.
(§15) 5. After the JANUS program was finished, acetonitrile/water 50:50 (V/V) was added to column 20 of the 384-well black plate, and blank control was added to column 21 of the 384-well black plate.
(§16) 6. the plate (420 nm-465 nm) was read on a microplate reader to determine the VIVID fluorescence intensity.
(§17) 7. After the plate was sealed, shaken and centrifuged, the sample plate was subjected to the LC/MS instrument for sample analysis.
(§18) A profile of the logarithmic value of the remaining rate of the drug in the incubation system versus the incubation time was plotted, and the slope k was obtained by linear regression. The intrinsic clearance rate in vivo (Clint, mL/min/g) value, the clearance rate in vivo (Cl, mL)/min), liver clearance (Clhep, mL/min) and metabolic bioavailability (% MF) were predicted according to the following equations: […]

Another data set addresses PRC2 enzyme (Homo sapiens (Human), UniProt O75530). In words: PRC2 enzyme activity, TR-FRET method. The class given is biochemical. The method, then:
The TR-FRET method was used to measure the PRC2 enzyme activity. First, the enzyme was mixed with compounds at different concentrations and incubated for 30 min at room temperature. The biotin-labeled histone H3 peptide substrate and the cofactor S-adenosylmethionine (SAM) were added to initiate the enzymatic reaction. After reaction was performed at room temperature for 4 hour, Acceptor and Donor were added and incubated for half an hour. The multifunctional microplate reader EnVision (Perkin Elmer Inc.) was used to detect the fluorescence signal. Data were analyzed using GraphPad Prism 5.0 software, and IC50 values were obtained.

In data set [3] the test system is Pfeiffer cells. In words: Growth inhibition of Pfeiffer cells in a long term (14 days), CellTiter-Glo. It counts as cell-based, Human. Conditions: Homo sapiens, 336 h, 14 days, read-out: Pfeiffer (14 days) IC50. The method, then: In a CO2 cell incubator (37° C., 5% CO2), Human diffuse large B-cell lymphoma (DLBCL) cell line, pfeiffer (obtained from ATCC, CRL-2632) were incubated with RPMI 1640 medium (Gibco, purchased from Life Technologies, 22400-089) containing 10% fetal bovine serum (Gibco, purchased from Life Technologies, 10099-141) and 1% antibiotics (penicillin and streptomycin, purchased from Life Technologies, 10378016). […] After seeding the cells, they were placed in a CO2 incubator and allowed to stand for 1 hour. In a 24-well plate containing cells, 2 μL of three-fold gradient of the compounds at 9 different concentrations or DMSO were added to each well, such that the final concentration of the compounds was 0.003-20 μM or 0.3-2000 nM, and the final concentration of DMSO was 0.2%. At day 4, day 7, and day 11 of compound treatment, the fresh medium and compounds were changed, and the cell density of the DMSO control well was diluted to 2*10E5 cells/mL. The cell dilution ratio for other compound wells was the same as that of the DMSO control well. Cell viability was determined by using CellTiter-Glo reagent (purchased from Promega Inc., G7572): cells treated with the compounds for 14 days were transferred to a white 384-well plate (OptiPlate-384, purchased from PerkinElmer, 6007299) at 40 μL/well, an equal volume of CellTiter-Glo reagent was further added. After incubating at room temperature for 10 min, the cold luminescence signal was detected with a multifunctional microplate reader EnVision (PerkinElmer) at a wavelength of 400 to 700 nm. Data were analyzed using GraphPad Prism 5.0 software, and IC50 values were obtained.

The nature of data set [4]: Liver microsomal stability (rat). The class given is in vitro ADME. The method, then:
as §1, §2, §3, §4, §5, §6, §7, §8, §9, §10, §11, §12, §13, §14, §15, §16, §17, §18

For the next data set, the system named is Karpas-422 cells. In words: Growth inhibition of Karpas-422 cells in a long term (11 days), CellTiter-Glo. It counts as cell-based, Human. Conditions: Homo sapiens, 264 h; Karpas-422, 11 days; read-out: Karpas-422 (11 days) IC50.
Data set [5] is described as follows: Oral pharmacokinetics in rats. It counts as in vivo. Conditions: male, SD, plasma, rat, intragastric, 3 mg/kg. The method, then:
1. Healthy male SD rats were used as test animals, EED226, […]-07 (3 mg/kg) were administered intragastrically, and the drug concentrations in rat plasma were determined by LC/MS/MS method at different time points after drug administration. The pharmacokinetic behavior of the compounds of the present invention in rats was studied, and the pharmacokinetic properties were evaluated. 2. The test animals were healthy adult male SD rats, with 3 rats in each group, purchased from Shanghai Xipuer-Bikai Laboratory Animal Limited Company. 3. Drug preparation: Compounds EED226, […] were dissolved in DMSO/0.5% HPMC (5/95, v/v) for preparation. The compound SL-ZYE-07 was dissolved in 0.5% HPMC (containing 0.5% Tween 80), vortexed, and sonicated to disperse the solid matter uniformly to obtain a pale white suspension. 4, Operation: EED226, […]-07 were administered to rats by intragastric administration (3 mg/kg), 45 μL of blood was taken through the femoral vein at 0.25, 0.5, 1, 2, 4, 8, 24 hour after administration, and centrifuged in a heparinized centrifuge tube for 5 min, and the plasma samples were separated for analysis. The contents of test compounds in rat plasma after intragastric administration of different compounds were determined by Liquid chromatography-mass spectrometry (LC-MS/MS).

Data set [6] concerns Pfeiffer cells. Put plainly: Pfeiffer cell growth inhibition in a long term (11 days), CellTiter-Glo. It counts as cell-based, Human. Conditions: Homo sapiens, 264 h, 11 days, read-out: Experiment on Pfeiffer cell growth inhibition in a long term (11 days IC50). The method, then:
Pfeiffer cells in exponential growth phase were seeded in a 24-well plate with a cell density of 1*10E5 cells/mL. Cells were treated on the same day with the compounds at different concentrations. At day 4 and day 7 of compound treatment, fresh media and compounds were changed. After treated with the compounds for 11 days, cell viability was measured using CellTiter-Glo reagent (Promega Corporation). The data was analyzed using GraphPad Prism 5.0 software and GI50 values were obtained.

In another data set the test system is SU-DHL-4 cells. In words: Growth inhibition of SU-DHL-4 cells in a long term (11 days), CellTiter-Glo. The class given is cell-based, Human. Conditions: Homo sapiens, 264 h; SU-DHL-4, 11 days; read-out: SU-DHL-4 (11 days) IC50.

Where two headings read alike, the source gives them in different places.

PRC2 enzyme, sequence (O75530 whole entry): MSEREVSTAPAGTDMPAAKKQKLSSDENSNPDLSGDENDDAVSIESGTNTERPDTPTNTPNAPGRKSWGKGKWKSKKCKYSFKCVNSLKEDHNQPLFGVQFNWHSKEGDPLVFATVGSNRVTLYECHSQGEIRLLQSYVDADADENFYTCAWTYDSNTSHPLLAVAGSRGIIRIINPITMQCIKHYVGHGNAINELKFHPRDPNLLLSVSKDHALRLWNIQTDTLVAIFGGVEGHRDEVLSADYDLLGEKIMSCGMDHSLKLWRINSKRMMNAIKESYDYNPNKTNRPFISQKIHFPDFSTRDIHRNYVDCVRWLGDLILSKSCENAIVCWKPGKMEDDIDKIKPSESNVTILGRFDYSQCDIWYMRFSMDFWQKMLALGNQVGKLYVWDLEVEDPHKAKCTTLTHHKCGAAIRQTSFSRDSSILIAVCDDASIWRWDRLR
PRC2 enzyme, sequence (Q15910 whole entry partner): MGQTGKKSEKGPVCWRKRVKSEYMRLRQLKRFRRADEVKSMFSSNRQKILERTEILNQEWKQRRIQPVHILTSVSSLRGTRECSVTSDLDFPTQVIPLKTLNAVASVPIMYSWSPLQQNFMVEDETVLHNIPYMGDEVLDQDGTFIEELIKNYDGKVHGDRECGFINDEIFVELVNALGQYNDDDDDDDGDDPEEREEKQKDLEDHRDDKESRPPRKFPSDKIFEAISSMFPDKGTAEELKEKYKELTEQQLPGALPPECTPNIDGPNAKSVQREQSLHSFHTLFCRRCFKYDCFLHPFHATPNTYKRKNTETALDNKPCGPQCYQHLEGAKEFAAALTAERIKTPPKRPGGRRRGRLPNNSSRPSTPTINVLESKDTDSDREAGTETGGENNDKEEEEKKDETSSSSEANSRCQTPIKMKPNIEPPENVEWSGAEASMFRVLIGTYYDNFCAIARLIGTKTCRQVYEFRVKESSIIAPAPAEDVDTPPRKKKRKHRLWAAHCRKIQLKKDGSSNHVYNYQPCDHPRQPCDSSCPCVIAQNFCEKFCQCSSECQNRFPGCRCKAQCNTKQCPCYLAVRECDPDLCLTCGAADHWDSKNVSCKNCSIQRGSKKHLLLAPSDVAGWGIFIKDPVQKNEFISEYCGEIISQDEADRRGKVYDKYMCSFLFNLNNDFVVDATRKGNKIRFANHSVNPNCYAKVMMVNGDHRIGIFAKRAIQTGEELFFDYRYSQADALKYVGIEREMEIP
PRC2 enzyme, sequence (Q15022 whole entry partner): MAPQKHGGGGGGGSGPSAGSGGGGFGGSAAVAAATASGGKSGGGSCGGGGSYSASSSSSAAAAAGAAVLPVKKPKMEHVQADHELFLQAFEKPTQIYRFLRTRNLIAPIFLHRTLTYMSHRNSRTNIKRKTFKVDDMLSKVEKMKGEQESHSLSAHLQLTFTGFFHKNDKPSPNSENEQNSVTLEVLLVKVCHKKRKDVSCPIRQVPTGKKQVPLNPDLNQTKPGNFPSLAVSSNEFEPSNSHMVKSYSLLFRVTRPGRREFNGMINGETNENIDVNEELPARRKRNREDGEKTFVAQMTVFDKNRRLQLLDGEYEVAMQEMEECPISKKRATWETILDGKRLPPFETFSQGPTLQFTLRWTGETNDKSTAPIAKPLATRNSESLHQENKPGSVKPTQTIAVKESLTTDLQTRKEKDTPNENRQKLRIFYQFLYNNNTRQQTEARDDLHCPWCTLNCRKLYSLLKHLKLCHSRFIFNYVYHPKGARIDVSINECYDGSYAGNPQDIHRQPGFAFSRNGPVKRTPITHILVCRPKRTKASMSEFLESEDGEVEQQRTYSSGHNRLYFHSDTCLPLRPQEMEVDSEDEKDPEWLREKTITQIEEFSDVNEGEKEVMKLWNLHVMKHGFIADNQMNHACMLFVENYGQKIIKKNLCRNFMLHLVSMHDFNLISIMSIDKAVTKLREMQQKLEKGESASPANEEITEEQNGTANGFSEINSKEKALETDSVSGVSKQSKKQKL

`Fc1ccc2c(c1CNc1ncc(C3CCOCC3)c3nncn13)CCO2` [E-Y47]: the figures for the “Clearance rate in vivo Clint In Vivo Extpl” value in data set [1] (mouse liver microsomes), in [2] (human liver microsomes) and in data set [4] (rat liver microsomes) were 1.17 mL/min, 519 mL/min and 6.79 mL/min, respectively. The “Intrinsic clearance rate in vivo Clint In Vitro” value turned out to be 17.3 mL/min/gprot in data set [1] (mouse liver microsomes), 6.79 mL/min/gprot in data set [2] (human liver microsomes) and 15.1 mL/min/gprot in data set [4] (rat liver microsomes). The figures for the “Liver clearance rate Clint Hep In Vivo Extpl” value in [1] (mouse liver microsomes), in data set [2] (human liver microsomes) and in data set [4] (rat liver microsomes) were 0.841 mL/min, 386 mL/min and 5.07 mL/min, respectively. The figures for the “Metabolic bioavailability MF %” value in [1] (mouse liver microsomes) and in data set [4] (rat liver microsomes) were 72.0% and 74.7%, respectively. Further, the half-life in [1] (mouse, liver microsomes, pH 7.4, mouse liver microsomes, read-out: Half life T-half) was 121 min; in [2] (human, liver microsomes, pH 7.4, human liver microsomes, read-out: Half life T-half) it was 309 min; in data set [4] (rat, liver microsomes, pH 7.4, rat liver microsomes, read-out: Half life T-half) it was 139 min; in data set [5] (read-out: Half life T1/2 (converted)), 154 ± 18.1 min. Moreover, the bioavailability in data set [2] (human, liver microsomes, pH 7.4, human liver microsomes, read-out: Metabolic bioavailability MF %) was found to be 74.3%. Also, the IC50 at PRC2 enzyme is 13 nM; with Pfeiffer cells [3], 6 nM; with Karpas-422 cells, 18 nM. Besides, in data set [5], the AUC(0-t) came to 7890 ± 2430 ng·h/mL. Moreover, the AUC(0-inf) in data set [5] (extrapolated to infinity, read-out: AUCINF_obs) was 7900 ± 2440 ng·h/mL. Besides, in [5] (read-out: Average residence time MRTINF_obs), the MRT inf was found to be 4.92 ± 0.369 h. Besides, the Cmax in data set [5] (read-out: Peak concentration Cmax) was found to be 1300 ± 628 ng/mL.
Turning to `CN1CC=C(c2cnc(NCc3c(F)ccc4c3CCO4)n3cnnc23)CC1` [SL-E23], the IC50 with Pfeiffer cells [6] is 7.7 nM; against PRC2 enzyme it was 4.7 nM; with Pfeiffer cells [3], 2 nM; in the data set with Karpas-422 cells, 2.8 nM. For the same compound, the “Clearance rate in vivo Clint In Vivo Extpl” value in data set [1] (mouse, microsomes) was found to be 3.67 mL/min; in data set [2] (human, microsomes), 807 mL/min; in data set [4] (rat, microsomes), 15.8 mL/min. In addition, the “Intrinsic clearance rate in vivo Clint In Vitro” value in data set [1] (mouse, microsomes) is recorded as 54.4 mL/min/gprot; in data set [2] (human, microsomes), 10.5 mL/min/gprot; in data set [4] (rat, microsomes), 35.0 mL/min/gprot. Further, the “Liver clearance rate Clint Hep In Vivo Extpl” value in data set [1] (mouse, microsomes) worked out at 1.65 mL/min; in data set [2] (human, microsomes), 525 mL/min; in [4] (rat, microsomes), 8.81 mL/min. Also, the half-life in data set [1] (mouse, microsomes, pH 7.4, Half life T-half) is 38.6 min; in data set [2] (human, microsomes, pH 7.4, Half life T-half), 199 min; in [4] (rat, microsomes, pH 7.4, Half life T-half) it was 60 min. Also, the “Metabolic bioavailability MF %” value was determined as 45.0% in [1] (mouse, pH 7.4) and 55.9% in data set [4] (rat, pH 7.4). Further, the bioavailability in [2] (human, pH 7.4, Metabolic bioavailability MF %) is 65%.
With `CN1CCC(c2cnc(NCc3c(F)ccc4c3CCO4)n3cnnc23)=CC1=O` [SL-E24], the IC50 in the data set with Pfeiffer cells [6] is 5.1 nM; in the data set with SU-DHL-4 cells, 3 nM; on PRC2 enzyme it was 3.9 nM; with Pfeiffer cells [3] it was 3 nM; in the data set on Karpas-422 cells, 3.1 nM.
For `CCS(=O)(=O)N1CC=C(c2cnc(NCc3c(F)ccc4c3CCO4)n3cnnc23)CC1` [SL-ZYE-144], the IC50 with Pfeiffer cells [6] worked out at 1.8 nM; in the data set on SU-DHL-4 cells it was 3 nM; at PRC2 enzyme it was 3.5 nM; in the data set with Pfeiffer cells [3] it was 0.8 nM; in the data set with Karpas-422 cells, 4 nM.
For `CC(C)S(=O)(=O)N1CC=C(c2cnc(NCc3c(F)ccc4c3CCO4)n3cnnc23)CC1` [SL-ZYE-145], in that order: 1.7 nM, 1 nM, 8.9 nM, 1 nM and 3.2 nM.
Take `O=S(=O)(C1CC1)N1CC=C(c2cnc(NCc3c(F)ccc4c3CCO4)n3cnnc23)CC1` [SL-ZYE-146]: the IC50 came out at 4.5 nM with Pfeiffer cells [6]; 4 nM in the data set with SU-DHL-4 cells; 2.9 nM on PRC2 enzyme; 3 nM in the data set with Pfeiffer cells [3]; 4 nM in the data set with Karpas-422 cells.
In the case of `O=C(C1CC1)N1CC=C(c2cnc(NCc3c(F)ccc4c3CCO4)n3cnnc23)CC1` [SL-ZYE-162], the half-inhibitory concentration (IC50) was found to be 2.7 nM with Pfeiffer cells [6]; 3.1 nM in the data set with SU-DHL-4 cells; 5.2 nM against PRC2 enzyme; 1.2 nM with Pfeiffer cells [3]; 2.8 nM in the data set with Karpas-422 cells.
The corresponding values for `CC1CC(c2cnc(NCc3c(F)ccc4c3CCO4)n3cnnc23)=CCO1` (stereo not drawn) [SL-ZYE-196] are 7 nM, 9 to 50 nM, 14.1 nM, 4 nM and 19.9 nM.
